For 29 compounds, Ki results are on record in patent US20060063759A1, “Tricyclic steroid hormone nuclear receptor modulators” (priority 2002, published 2006).

The target in this assay is T1, human MR (Homo sapiens, UniProt P08235).
T1 construct: The full length human MR gene is cloned from a human kidney or human brain cDNA library; His tag from the pAcHLT vector (own knowledge); made in house; host or cells: Sf9 insect cells (baculovirus, pAcHLT transfer vector)
T1 sequence (P08235 1-984): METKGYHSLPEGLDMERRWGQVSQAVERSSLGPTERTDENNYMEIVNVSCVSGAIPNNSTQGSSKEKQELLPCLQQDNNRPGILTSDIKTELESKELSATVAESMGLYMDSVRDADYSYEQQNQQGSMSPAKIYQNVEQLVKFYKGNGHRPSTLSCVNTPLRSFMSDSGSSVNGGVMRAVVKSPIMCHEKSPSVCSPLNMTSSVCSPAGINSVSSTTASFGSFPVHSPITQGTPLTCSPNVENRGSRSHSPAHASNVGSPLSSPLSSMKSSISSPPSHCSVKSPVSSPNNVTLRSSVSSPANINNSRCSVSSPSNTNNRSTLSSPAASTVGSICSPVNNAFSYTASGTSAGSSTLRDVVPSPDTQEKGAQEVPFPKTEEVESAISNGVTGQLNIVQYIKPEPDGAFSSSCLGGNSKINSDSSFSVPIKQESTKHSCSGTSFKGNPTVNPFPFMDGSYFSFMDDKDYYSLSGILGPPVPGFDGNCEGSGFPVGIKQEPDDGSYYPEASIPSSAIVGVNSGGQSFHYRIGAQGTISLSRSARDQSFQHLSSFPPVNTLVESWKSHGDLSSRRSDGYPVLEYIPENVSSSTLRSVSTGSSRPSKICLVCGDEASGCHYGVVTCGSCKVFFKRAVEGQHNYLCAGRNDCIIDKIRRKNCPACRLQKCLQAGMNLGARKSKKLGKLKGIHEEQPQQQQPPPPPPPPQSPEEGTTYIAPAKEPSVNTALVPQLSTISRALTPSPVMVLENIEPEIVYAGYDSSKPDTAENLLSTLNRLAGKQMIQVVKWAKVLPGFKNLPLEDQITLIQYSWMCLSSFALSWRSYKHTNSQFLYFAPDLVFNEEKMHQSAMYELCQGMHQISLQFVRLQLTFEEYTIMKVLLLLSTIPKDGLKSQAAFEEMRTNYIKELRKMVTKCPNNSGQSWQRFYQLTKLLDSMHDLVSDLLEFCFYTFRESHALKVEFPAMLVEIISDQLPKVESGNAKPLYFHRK
The experiment in a line: Mineralocorticoid Receptor Binding Assay ([3H]-aldosterone). Particulars: [3H]-aldosterone binding, human MR expressed in Sf9 cells; read-out: MR Ki. On the procedure:
All ligands, radioligands, solvents, and reagents employed in the binding assays are readily available from commercial sources, or can be readily synthesized by the ordinarily skilled artisan.
The full length human MR gene is cloned from a human kidney or human brain cDNA library. […] The PCR reaction is performed in a final volume of 50 μl containing about 1 μl of a 50× stock solution of polymerase; about 1 μl of a 50× stock solution of dNTP; about 5 μl of an appropriate PCR buffer; about 1 μl of each primer; about […] of a H. kidney or H. brain cDNA library; and about 36 μl of water. The reaction is allowed to denature for about 30 seconds at 95 degrees Celsius, anneal for about 30 seconds at 55 degrees Celsius, and extend for about 5 minutes at 72 degrees Celsius, the sequence being repeated for a total of about 35 cycles. […] To extract the cDNA product from the agarose gel, the QIAEX II Gel Extraction protocol (QIAGEN, Inc.) is employed according to the manufacturer's instructions. Following extraction, the MR cDNA is cloned into an appropriate cloning vector (Zero Blunt TOPO PCR Cloning Kit Invitrogen, Inc.) and a pAcHLT-baculovinis transfer vector (B.D./Pharminogen), then expressed in SF9 insect cells, essentially according to manufacturer's instructions. Sf9 cells are grown at a scale where gram quantity cell pellets are obtained for subsequent use in the MR binding assay. Harvested cell pellets are lysed by repeated freeze-thaw cycles (about 4) in a suitable lysis buffer then centrifuged at about 1×10^3 G (with the supernatant being saved for future assays).
MR binding assays are performed in a final total volume of about 250 μl containing about 20-25 μg of protein and 0.5 nM of [^3H]-aldosterone plus varying concentrations of test compound or vehicle. The assay binding buffer consists of 30 mM sodium molybdate, 30 mM of TRIS-HCl, 5 mM sodium phosphate, 5 mM sodium pyrophosphate, and about 10% glycerol, pH=7.5.
Incubations are carried out at 4 degrees Celsius with shaking for about 16 hours. 200 μl aliquots of each incubation are filtered onto Millipore HA 0.45 micron 96-well filter plates, pre-moistened with cold 30 mM TRIS-HCl. The filter plates are suctioned dry with vacuum and immediately washed 3× with cold 30 mM TRIS-HCl. The plates are then punched out and the amount of receptor-ligand complex is determined by liquid scintillation counting using 4 ml of Ready Protein Plus™ liquid scintillation cocktail.
IC50 values (defined as the concentration of test compound required to decrease [^3H]-aldosterone binding by 50%/o) are then determined.
What is called Ki is the dissociation constant of the complex between target and ligand, obtained from inhibition or displacement. In the case of `CC(C)S(=O)(=O)Nc1ccc(C=C2c3ccccc3CCc3ccccc32)cc1` [Example 107, Propane-2-sulfonic acid [4-(10,11-dihydro-dibenzo[a,d]cyclohepten-5-ylidenemethyl)-phenyl]-amide], the Ki was under 500 nM. To `CSc1cccc(C=C2c3ccccc3CCc3ccccc32)c1` [Example 278, 5-(3-Methylsulfanyl-benzylidene)-10,11-dihydro-5H-dibenzo[a,d]cycloheptene] belongs under 500 nM; to `Cc1cccc2c1/C(=C/c1cccc(NS(C)(=O)=O)c1)c1ccccc1CC2` [Example 313], under 500 nM; to `CS(=O)(=O)Nc1ccc2c(c1)CCc1ccccc1/C2=C/c1cccc(O)c1` [Example 337], under 1000 nM. Next, `CS(=O)(=O)Nc1cccc(/C=C2/c3ccccc3CCc3cc(F)ccc32)c1` [Example 354]: under 500 nM; `COc1ccc2c(c1)CCc1cc(Cl)ccc1/C2=C\c1cccc(NS(C)(=O)=O)c1` [Example 425]: under 500 nM; `COc1ccc2c(c1)CCc1cc(Cl)ccc1/C2=C/c1cccc(NS(C)(=O)=O)c1` [Example 426]: under 500 nM. Next, `CS(=O)(=O)Nc1cccc(/C=C2\c3ccc(F)cc3CCc3ncccc32)c1` [Example 486, (E)-N-[3-(8-fluoro-10,11-dihydro-benzo[4,5]cyclohepta[1,2-b]pyridin-5-ylidenemethyl)-phenyl]-methanesulfonamide]: under 500 nM. `CS(=O)(=O)Nc1cccc(C=C2c3ccccc3CCc3ccsc32)c1` [Example 493]: the inhibitory constant (Ki) is under 500 nM. Next, `CS(=O)(=O)Nc1cccc(/C=C2/c3ccccc3CCc3ccncc32)c1` [Example 513]: under 1000 nM; `CC(=O)Nc1nc2c(s1)/C(=C\c1cccc(NS(C)(=O)=O)c1)c1ccccc1CC2` [Example 558]: under 500 nM; `O=c1[nH]c2cc(/C=C3/c4ccc(F)cc4OCc4ncccc43)ccc2n1CCN1CCOCC1` [Example 618, (E)-5-(8-Fluoro-11H-10-oxa-1-aza-dibenzo[a,d]cyclohepten-5-ylidenemethyl)-1-(2-morpholin-4-yl-ethyl)-1,3-dihydro-benzoimidazol-2-one]: under 500 nM. To `O=[N+]([O-])c1cccc(/C=C2/c3ccccc3OCc3c(Cl)cccc32)c1` [Example 621] belongs under 500 nM; to `O=c1[nH]c2ccc(/C=C3/c4ccc(F)cc4OCc4ncccc43)cc2[nH]1` [Example 625], under 500 nM. Next, `O=c1[nH]c2ccc(CC3c4ccccc4COc4cc(F)ccc43)cc2[nH]1` (centres unmarked) [Example 645]: under 500 nM; `Cc1ccc2c(c1)/C(=C/c1cccc(NS(C)(=O)=O)c1)c1ccccc1CO2` [Example 678]: under 500 nM. Take `CS(=O)(=O)Nc1cccc(C=C2c3ccccc3CSc3c(Cl)cc(Cl)cc32)c1` [Example 697]: the Ki is under 500 nM.

Regarding `Cn1c(=O)n(C)c2cc(/C=C3\c4ccccc4COc4cc(F)ccc43)ccc21` [Example 717], the Ki is under 500 nM. To `O=c1[nH]c2cc(/C=C3\c4ccc(F)cc4OCc4ncsc43)ccc2n1CCN1CCOCC1` [Example 719] belongs under 500 nM; to `CS(=O)(=O)Nc1cccc(C=C2c3ccccc3CSc3c(Cl)cccc32)c1` [Example 720], under 500 nM. Next, `COCC(=C1c2ccccc2CCc2cc(Cl)ccc21)c1cccc(NS(C)(=O)=O)c1` [Example 756, N-{3-[1-(2-Chloro-10,11-dihydro-dibenzo[a,d]cyclohepten-5-ylidene)-2-methoxy-ethyl]-phenyl}-methanesulfonamide]: under 500 nM; `C/C(=C1\c2ccccc2CCc2cc(C)ccc21)c1cccc(NS(C)(=O)=O)c1` [Example 781]: under 500 nM; `C/C(=C1/c2ccccc2CCc2cc(C)ccc21)c1cccc(NS(C)(=O)=O)c1` [Example 782]: under 500 nM.

In the case of `C/C(=C1\c2ccccc2COc2cc(Cl)ccc21)c1cccc(NS(C)(=O)=O)c1` [Example 791], the Ki was under 500 nM.

For the compound `C/C(=C1/c2ccccc2COc2cc(Cl)ccc21)c1cccc(NS(C)(=O)=O)c1` [Example 792], the Ki was under 500 nM. To `CCOc1ccc2c(c1)OCc1ccccc1/C2=C(\C)c1cccc(NS(C)(=O)=O)c1` [Example 815] belongs under 500 nM; to `CCCCOc1ccc2c(c1)OCc1ccccc1/C2=C(/C)c1cccc(NS(C)(=O)=O)c1` [Example 816], under 500 nM; to `C/C(=C1\c2ccccc2CCc2cc(OCC3CC3)ccc21)c1cccc(NS(C)(=O)=O)c1` [Example 825], under 500 nM. On to `C/C(=C1/c2ccccc2CCc2cc(OCC3CC3)ccc21)c1cccc(NS(C)(=O)=O)c1` [Example 826], for which the inhibition constant Ki was under 500 nM.
